{"source": "patent US20120328713A1", "about": "“Articles of Manufacture with Improved Anti-microbial Properties” (priority 2009, published 2012)", "key": {"[1]": {"tested_on": "alternaria leaf blight (Alternaria brassicicola)", "test": "Field trial, foliar spray against alternaria leaf blight in cauliflower and broccoli (Example 23)", "assay_type": "in vivo", "procedure": "(§1) Silver (III) periodate was tested as a fungicidal foliar spray treatment against alternaria leaf blight (Alternaria brassicicola) and downy mildew (Peronospora paratsitica Lui) in cauliflower (Brassica oleracea var. botrytis) and broccoli (Brassica oleracea […]), respectively.\nPreparation of Seed, Preparation of Field, Seeding, Plot Maintenance: Two trials were conducted in organic soil (pH ≈7.2, organic matter ≈47.2%). Cauliflower and broccoli were seeded into 128-cell Plastomer plug trays in early June and hand transplanted in early July in two rows, 86 cm apart and 9 meter in length, with an in-row spacing of 40 cm. A randomized complete block arrangement with four replicates per treatment was used. Treatments were applied in July and August using a CO2 backpack sprayer equipped with 4 TeeJet D-2 hollow cone nozzles spaced 40 cm apart and calibrated to deliver 250 L/ha at 240 kPa.\nThis was immediately followed by irrigation to achieve leaf wetness. The plots were treated prior to inoculation.\nPreparation of Spray Treatment Solutions and Inoculum: The treatment rate for silver (III) periodate was 0.16 kg/ha. It was also combined (at this rate) with Bravo, which was delivered at 2.5L/ha.\nData Collection: Plants were monitored weekly to determine when lesions were first observed. Plants (15 per rep, randomly selected and marked for continued assessment) were assessed twice during the growing season for number of lesions per leaf. As heads mature, 15 heads per rep in total were harvested and assessed from each experimental unit. The number of Alternaria le sions per leaf were counted. Healthy leaves were counted and trimmed head weights were recorded to indicate marketable yield.\nTreatments compared were oxysilver nitrate, silver (III) periodate, Bravo, Bravo+oxysilver nitrate, Bravo+silver (III) periodate, and water (control)."}, "[2]": {"tested_on": "Escherichia coli ATCC 25922", "test": "MBEC P&G assay in dilutions of human serum", "assay_type": "cell-based", "procedure": "(§2) The effects of silver (III) periodate and silver nitrate were tested in different dilutions of human serum (0.001%, 0.01%, 0.1%, 1%, 10%, 50%) using the MBECTM P&G assay against relevant clinical human pathogens Escherichia coli, Staphylococcus aureus (MRSA), and Candida albicans. The challenge time was 4 hours. The tested concentration range for the silver compounds was 500 to 7.8 ppm."}, "[3]": {"tested_on": "Candida albicans ATCC 28367", "test": "MBEC P&G assay in dilutions of human serum", "assay_type": "cell-based", "procedure": "as §2"}, "[4]": {"tested_on": "Staphylococcus aureus (MRSA) 456", "test": "MBEC P&G assay in dilutions of human serum", "assay_type": "cell-based", "procedure": "as §2"}, "[5]": {"tested_on": "bacterial speck (Pseudomonas syringae pv. tomato)", "test": "Field trial, foliar spray against bacterial speck in tomatoes (Example 18)", "assay_type": "in vivo, tomatoes (Lycopersicon esculentum)", "conditions": "after three treatment sprays"}, "P. aeruginosa ATCC 27853": {"tested_on": "P. aeruginosa ATCC 27853", "test": "Silver (III) periodate efficacy testing in the presence of Cl-, SO4 2-, and PO4 3-", "assay_type": "cell-based", "conditions": "water, 1% NaCl, 1% K2SO4 and 1% K2HPO4 solutions; challenge time 30 minutes; tested 1.5-200 ppm", "procedure": "Silver (III) periodate was tested for efficacy in water, 1% NaCl, 1% K2SO4, and 1% K2HPO4 solutions, and compared with silver nitrate. The test solutions were tested against P. aeruginosa ATCC 27853. The challenge time was 30 minutes. Silver (III) periodate and silver nitrate were tested at range of 1.5-200 ppm."}, "[6]": {"tested_on": "Escherichia coli (ATCC 25922)", "test": "MBEC P&G assay in dilutions of urine", "assay_type": "cell-based", "procedure": "The effects of silver (III) periodate and silver nitrate in different dilutions of urine (0.001%, 0.01%, 0.1%, 1%, 10%, 50%) using the MBEC™ P&G assay were tested against Escherichia coli (ATCC 25922)The challenge time was 4 hours. The tested concentration range for both silver compounds was 500 to 7.8 ppm."}, "[7]": {"tested_on": "Escherichia coli (ATCC 25922)", "test": "MBEC P&G assay in dilutions of feces", "assay_type": "cell-based", "procedure": "The challenge time was 4 hours. The tested concentration range for both silver compounds was 500 to 7.8 ppm."}, "[8]": {"tested_on": "Escherichia coli (ATCC 25922)", "test": "MBEC P&G assay in dilutions of mucin", "assay_type": "cell-based", "procedure": "The effects of silver (III) periodate and silver nitrate in different dilutions of mucin (2.0%, 1.0%, 0.5%, 0.25%, 0.12%, 0.06%) were tested using the MBEC™ P&G assay against Escherichia coli (ATCC 25922)The challenge time was 4 hours. The tested concentration range for both silver compounds was 500 to 7.8 ppm."}, "[9]": {"tested_on": "downy mildew (Peronospora paratsitica Lui)", "test": "Field trial, foliar spray against downy mildew (Example 24)", "assay_type": "in vivo", "conditions": "compared with the check", "procedure": "as §1\nSee Example 23 for Preparation of Tomato Seed; Preparation of Field; Seeding; Plot Maintenance; Preparation of Spray Treatment Solutions and Inoculum; Spray Treatment Procedure; and Data Collection."}, "[10]": {"tested_on": "relevant clinical pathogens in biofilm form (Pseudomonas aeruginosa, MRSA, MRSE, Acinetobacter baumanii, Listeria monocytogenes, VRE, Escherichia coli, Candida …)", "test": "MBEC efficacy testing against relevant clinical pathogens in saline", "assay_type": "cell-based", "conditions": "challenge time 4 hours, 2000 ppm to 15.62 ppm", "procedure": "The antimicrobial effect of silver (III) periodate and silver nitrate (2000 ppm to 15.62 ppm) in saline was tested against Pseudomonas aeruginosa, Staphylococcus aureus (MRSA), Staphylococcus epidermidis (MRSE), Acinetobacter baumanii, Listeria monocytogenes, Enterococcus faecalis (VRE), Escherichia coli, Candida albicans, Klebsiella pneumonia, Enterobacter aerongenes. The challenge time was 4 hours."}, "bacterial speck": {"tested_on": "bacterial speck", "test": "Field trial, foliar spray against bacterial speck in tomato (Example 22)", "assay_type": "in vivo", "conditions": "compared with the standard Kocide and Kocide+Dithane", "procedure": "Silver (III) periodate was tested as a foliar spray treatment fungicide against bacterial speck in tomato.\nSee Example 22 for Preparation of Tomato Seed; Preparation of Field; Seeding; Plot Maintenance; Preparation of Spray Treatment Solutions and Inoculum; Spray Treatment Procedure; and Data Collection.\nThe treatments compared were water (control), oxysilver nitrate, silver (III) periodate, Dithane, Kocide 2000, Dithane DG 75+Kocide 2000, oxysilver nitrate+Dithane, and silver (III) periodate+Dithane, Serenade Max, and Serenade Max+oxysilver nitrate."}, "[11]": {"tested_on": "bacterial canker (Clavibacter michiganensis pv. michiganensis)", "test": "Field trial, foliar spray against bacterial canker in tomatoes (Example 19)", "assay_type": "in vivo, tomatoes (Lycopersicon esculentum)", "procedure": "Silver (III) periodate was tested as a bactericidal foliar spray treatment against bacterial canker (Clavibacter michiganensis pv. michiganensis) in tomatoes (Lycopersicon esculentum).\nSee Example 18 for Preparation of Tomato Seed; Preparation of Field; Seeding; Plot Maintenance; Preparation of Spray Treatment Solutions and Inoculum; Spray Treatment Procedure; and Data Collection."}}, "data": [{"smiles": "[Ag+3].[Na+].[Na+].[Na+].[Na+].[Na+].[O-][I+]([O-])([O-])([O-])([O-])O.[O-][I+]([O-])([O-])([O-])([O-])O", "note": "[silver (III) periodate, sodium diperiodatoargentate]", "values": [{"measurement": "harvest weights", "setting": "[1]; broccoli", "value": "higher harvest weights (not significant)"}, {"measurement": "Alternaria lesions per leaf", "setting": "[1]; compared with the check, broccoli", "value": "significantly lower Alternaria lesions per leaf than the check"}, {"measurement": "Alternaria lesions per leaf", "setting": "[1]; second result paragraph, crop not given", "value": "higher Alternaria lesions per leaf than the check and other treatments"}, {"measurement": "log reduction compared with silver nitrate", "setting": "[2]; 0.1% and 0.01% human serum, low tested concentrations", "value": "lower log reduction than silver nitrate"}, {"measurement": "difference in log reduction over silver nitrate", "setting": "[2]; 50% and 10% human serum, even at concentrations as low as 7.8 ppm", "value": "1.5-2.0 log reduction"}, {"measurement": "log reduction, trend with compound concentration", "setting": "[2]; human serum dilutions, in general, 4 hours, 500 to 7.8 ppm", "value": "log reductions decreased with the decrease in concentrations of silver (III) periodate"}, {"measurement": "log reduction", "setting": "[3]; 0.1%, 0.01%, 0.001% human serum, concentrations higher than 125 ppm", "value": "higher log reductions"}, {"measurement": "log reduction", "setting": "[3]; 10% and 1% human serum, 31.25-125 ppm", "value": "Log reductions were higher"}, {"measurement": "log reduction compared with the other compound", "setting": "[4]; 0.001% human serum, 31.25-125 ppm", "value": "higher log reductions"}, {"measurement": "killing activity", "setting": "[4]; 0.1% and 0.01% human serum", "value": "no significant killing activity"}, {"measurement": "killing activity, silver (III) periodate vs silver nitrate", "setting": "[4]; high concentrations of human serum", "value": "no significant differences"}, {"measurement": "disease severity on foliage", "setting": "[5]", "value": "best at reducing disease severity on foliage"}, {"measurement": "effective concentration", "setting": "P. aeruginosa ATCC 27853", "value": 1.73, "unit": "ppm"}, {"measurement": "MBC cut-off point", "setting": "[6]; 10% urine", "value": 31.25, "unit": "ppm"}, {"measurement": "MBC cut-off point", "setting": "[6]; 100% urine", "value": 250, "unit": "ppm"}, {"measurement": "log reduction", "setting": "[6]; 500 and 250 ppm, all tested concentrations of urine", "value": "approximately equal log reductions"}, {"measurement": "log reduction compared with the other compound", "setting": "[6]; compound concentrations of 125 ppm and below", "value": "larger log reduction at the lower and middle concentrations"}, {"measurement": "compound concentration giving the highest log reduction", "setting": "[6]; concentrations at 125 ppm and below, urine", "value": 62.5, "unit": "ppm"}, {"measurement": "MBC, effective level", "setting": "[7]; 1.56% feces", "value": "> 15.6", "unit": "ppm"}, {"measurement": "MBEC, effective level", "setting": "[7]; 1.56% feces", "value": 125, "unit": "ppm"}, {"measurement": "MBC, effective level", "setting": "[7]; 3.13% feces", "value": "> 31.25", "unit": "ppm"}, {"measurement": "MBEC, effective level", "setting": "[7]; 3.13% feces", "value": 250, "unit": "ppm"}, {"measurement": "MBC, effective level", "setting": "[7]; 6.25% feces", "value": "> 62.5", "unit": "ppm"}, {"measurement": "MBEC, effective level", "setting": "[7]; 6.25% feces", "value": 125, "unit": "ppm"}, {"measurement": "MBC, effective level", "setting": "[7]; 12.5% feces", "value": "> 62.5", "unit": "ppm"}, {"measurement": "MBC, effective level", "setting": "[7]; 25% feces", "value": "higher than 125 ppm"}, {"measurement": "MBC, effective level", "setting": "[7]; 50% feces", "value": "higher than 125 ppm"}, {"measurement": "MBEC, effective level", "setting": "[7]; concentrations of feces higher than 12.5%, ineffective at highest tested concentration", "value": "> 500", "unit": "ppm"}, {"measurement": "log reduction, trend with compound concentration", "setting": "[8]; higher concentrations of mucin", "value": "log reduction decreased with a decrease in concentration of silver (III) periodate"}, {"measurement": "effectiveness compared with the other compound", "setting": "[8]; higher concentrations of mucin (2% and 1%)", "value": "more effective than silver nitrate"}, {"measurement": "log reduction, trend with compound concentration", "setting": "[8]; lower concentrations of mucin (0.25%, 0.12% and 0.06%)", "value": "log reduction was relatively unaffected by the changes in concentration"}, {"measurement": "effectiveness compared with the other compound", "setting": "[8]; mucin 0.5%, 0.25%, 0.12% and 0.06%, lower compound concentrations", "value": "more effective than the lower tested concentrations of silver nitrate"}, {"measurement": "downy mildew severity indexes", "setting": "[9]", "value": "significantly lower downy mildew severity indexes than the check"}, {"measurement": "MBEC (minimum biofilm eradication concentration) killing activity", "setting": "[10]", "value": "higher killing activity than silver nitrate against most of the tested strains"}, {"measurement": "levels of bacterial speck (number of infected leaves) or disease severity ratings", "setting": "bacterial speck", "value": "did not have statistically different levels"}, {"measurement": "disease severity on foliage", "setting": "[11]; after three treatment sprays", "value": "best at reducing disease severity on foliage"}, {"measurement": "disease severity on foliage", "setting": "[11]; after two treatment sprays", "value": "best at reducing disease severity on foliage"}]}]}
